Assay results as given in publication PMC11645656, “MRGPRX4 mediates phospho-drug associated pruritus in a humanized mouse model” (Science translational medicine, 2024).
Where “and” joins values, the source holds several entries; their conditions need not be identical. Identical values can stand only once. One block for each compound: values may come before it.

Columns and labels:
Assay type in all cases: cell-based
MRGPRX4 S83L (L83) = MRGPRX4 S83L (L83) (Homo sapiens, UniProt Q96LA9); test: Calcium mobilization assay (FLIPR), S83L MRGPRX4 transiently expressed in HEK293T cells; parameters: expressed in transfected cells; host or cells: HEK293T, transient; conditions: 2e-5 M, single replicate
Excerpt: (§1) Fig. 4. […] Hydrogen bond is shown as cyan dashed lines. […] Data are from three independent experiments, performed in triplicate. (E) pEC50 plots of various agonists toward S83- and L83-MRGPRX4 through calcium mobilization assay. […] Each data point represents an independent experiment, performed in triplicate. The extra sum-of-square F test was used to examine the difference in EC50 values. One-sided t-test was used for nateglinide. *p< 0.05, **p< 0.01 and ***p< 0.001. ns = no statistical significance. Both (D) and (E) are reported as the mean ± SEM. N.D.= no detectable response ≤ 100 μM.
(§2) HEK293 cells and MRGPRX4 stably expressed HEK293 cells were seeded in 100 μl culture media on 96-well plates at a density of 40,000 cells per well and incubated overnight. The next day, the media were replaced with a dye-loading solution from the FLIPR Calcium 5 assay kit (Molecular Devices), diluted in Hank's Balanced Salt Solution (HBSS) with 20 mM HEPES, pH 7.4. After 1 h of incubation at 37°C, cells were allowed to recover for 10 min in the dark at room temperature prior to performing intracellular calcium mobilization assay in a Flexstation-3 instrument with SoftMax®Pro 7.1 software (Molecular Devices). Serial concentrations of tested drugs were prepared in HBSS/HEPES solution at 3X concentration. […] Compounds were tested in triplicates and the signals were averaged. Responses were determined by subtracting the minimum signal (at the baseline before adding the drug) from the maximum signal (obtained after drug stimulation). Four-parameter logistic (4PL) curve fit was used to plot the dose-response curves. […] Both dose-response curve fitting and EC50s calculation are computed with GraphPad Prism software (version: 6.o or above).
(§3) To generate murine Mrgprs expressing cells, HEK293T cells (ATCC) were seeded on poly-D-lysine coated 96 well plate at 25,000 cells per well one day prior to transfection. HEK293T cells were transiently co-transfected with the mammalian expression plasmids carrying cDNA encoding the murine Mrgpr genes and plasmid inserted with cDNA encoding murine α-subunit of the heterotrimeric G15 protein (Gα15) in triplicates using Lipofectamine LTX reagents (Thermo Scientific). To generate WT, S83L, and alanine mutant MRGPRX4-expressing cells, HEK293T cells were seeded on poly-D-lysine coated 384 well plate at 12,000 cells per well one day prior to transfection. Mammalian expression plasmids pLX304 (vector from Addgene) carrying different MRGPRX4 coding sequences were transiently transfected into HEK293T cells in triplicates with Lipofectamine LTX reagents (Thermo Scientific). Intracellular calcium mobilization assays were performed after one day of transfection. Murine Mrgprs tested include Mrgpra1, Mrgpra2a, Mrgpra2b, Mrgpra3, Mrgpra4, Mrgpra6, Mrgpra9, Mrgpra10, Mrgpra11, Mrgpra12, Mrgpra14, Mrgprb5, Mrgprb6, Mrgprb10, Mrgprb11, and Mrgprc11. WT and mutant MRGPRX4 constructs tested include WT, S83L, R82A, R86A, R95A, W158A, Y250A, and Y254A.

MRGPRX4 WT (S83) [1] = target: T1, MRGPRX4 WT (S83) (Homo sapiens, UniProt Q96LA9, L83S); test: Calcium mobilization assay (FLIPR), WT (S83) MRGPRX4 transiently expressed in HEK293T cells; parameters: expressed in transfected cells; host or cells: HEK293T, transient; conditions: for fig. S8 response (normalized), concentration-response: WT, single replicate
Excerpt: as §1, §2, §3

MRGPRX4 (S83) = target: T2, MRGPRX4 (S83) (Homo sapiens, UniProt Q96LA9, L83S); test: EC50 determination, intracellular calcium mobilization in MRGPRX4 stably expressed HEK293 cells (FLIPR Calcium 5, Flexstation-3); conditions: propofol series, individual replicate values
T2 construct: expressed in transfected cells
In short: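 HEK293 cells stably expressing receptor (parental HEK293 alongside) loaded with Calcium 5 dye in HBSS/20 mM HEPES, pH 7.4, 1 h at 37 °C, then compounds added. Response = peak minus pre-drug baseline, triplicates averaged; EC50 from 4PL fit.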

MRGPRX4 WT (S83) [2] = target: T1, MRGPRX4 WT (S83); test: PRESTO-Tango β-arrestin recruitment assay, HTLA cells stably expressing WT (S83) MRGPRX4; parameters: expressed in transfected cells; conditions: HTLA::MRGPRX4
Experimental: HTLA cells, a cell line derived from HEK293 and engineered to stably express a tTA-dependent luciferase reporter and a β-arrestin2-TEV fusion gene, were generously provided by Richard Axel's laboratory. HTLA cells were cultured in growth medium containing 2 μg/ml puromycin and 100 μg/ml hygromycin B in 5% CO2 at 37 °C. Stably MRGPRX4-expressing HTLA cells were generated by transfecting pcDNA3.1(+)-Zeo containing MRGPRX4-Tango construct (either with WT or S83L mutant sequence) into HTLA cells with Lipofectamine 3000 and selecting the successful transfected clones with Zeocin.
HTLA cells stably expressing either WT or S83L MRGPRX4 were seeded in PDL-coated 96-well white clear bottom cell culture plates with DMEM containing 10% FBS, at a density of 35,000 cells per well and were allowed to attach to the bottom of the wells overnight. The next day, growth medium was replaced with 100 μl of serum-free medium containing the tested drugs at various concentrations, and the cells were then incubated at 37°C for 24 h. On the following day, media with drug solutions was removed and 50 μl per well of Bright-Glo™ Reagent from Bright-Glo™ Luciferase Assay System (Promega) was loaded. The plate was incubated at room temperature in the dark for 5 min, and the relative luminescence units were measured using the Flexstation-3 instrument with SoftMax®Pro 7.1 software (Molecular Devices). Dose response curves and EC50s were analyzed as described above.
Data are from at least two independent experiments, each performed in
triplicate, and are depicted as mean ± SEM.
arrestin2-TEV fusion gene and a tTA -dependent luciferase reporter.

HTLA cells = test: PRESTO-Tango β-arrestin recruitment assay, parental HTLA cells without MRGPRX4 (control, fig. S1)
Excerpt: Supplement NIHMS2038790-supplement-table.xlsx, sheet "fig. S1" | column: Concentration (M)

T1 sequence (Q96LA9 whole entry L83S): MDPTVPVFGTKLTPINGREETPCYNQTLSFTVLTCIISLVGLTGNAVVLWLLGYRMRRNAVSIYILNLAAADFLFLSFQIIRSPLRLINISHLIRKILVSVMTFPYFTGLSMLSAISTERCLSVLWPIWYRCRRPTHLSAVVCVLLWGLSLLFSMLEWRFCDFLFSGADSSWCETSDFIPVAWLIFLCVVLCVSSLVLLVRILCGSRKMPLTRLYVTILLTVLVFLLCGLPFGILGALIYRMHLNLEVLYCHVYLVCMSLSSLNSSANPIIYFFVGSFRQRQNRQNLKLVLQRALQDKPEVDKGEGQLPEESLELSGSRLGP
T2 sequence (Q96LA9 whole entry L83S): as above
Chain of MRGPRX4 S83L (L83) (Q96LA9 whole entry, stated change not applied): as the sequence (Q96LA9 whole entry L83S) above, with S83L counted along it

fig. S8 response (normalized), concentration-response (MRGPRX4 S83L (L83)): 87.5629
fig. S8 response (normalized), concentration-response (MRGPRX4 WT (S83) [1]; 1.95e-8 M): 6.035
fig. S8 response (normalized), concentration-response (MRGPRX4 WT (S83) [1]; 3.91e-8 M): 8.843
Potency at S83- vs L83-MRGPRX4 (MRGPRX4 WT (S83) [1]; calcium mobilization, compared with S83L (A17)): equal potency
Compound: C[C@H](CCC(=O)O)[C@H]1CC[C@H]2[C@@H]3CC[C@@H]4C[C@H](O)CC[C@]4(C)[C@H]3C[C@H](O)[C@]12C [Deoxycholic Acid]

Compound: CC(C)c1cccc(C(C)C)c1O [Propofol]
Fig. 1D dose-response, calcium response at Concentration (M) (MRGPRX4 (S83); 9.76563e-7 M): 0.414 and 3.255 and 2.599 and 1.616 and 1.795 and 1.237 and 1.276 and 3.496 and 2.341
Fig. 1D dose-response, calcium response at Concentration (M) (MRGPRX4 (S83); 1.95313e-6 M): 1.458 and 0.513 and 0.300 and 1.914 and 1.276 and 2.203 and 3.251 and -1.964 and 1.519
Fig. 1D dose-response, calcium response at Concentration (M) (MRGPRX4 (S83); 3.90625e-6 M): 5.819 and 7.751 and 4.466 and 7.090 and 4.830 and 4.639 and 13.006 and -1.259 and 2.816
Fig. 1D dose-response, calcium response at Concentration (M) (MRGPRX4 (S83); 7.8125e-6 M): 1.962 and 0.130 and 1.580 and 1.041 and 3.162 and 0.591 and -0.388 and 5.581 and 3.691
Fig. 1D dose-response, calcium response at Concentration (M) (MRGPRX4 (S83); 1.5625e-5 M): 1.132 and 9.188 and 9.688 and 3.963 and 8.123 and 8.863 and 0.133 and 12.778 and 11.454
Fig. 1D dose-response, calcium response at Concentration (M) (MRGPRX4 (S83); 3.125e-5 M): 25.991 and 46.958 and 31.996 and 27.619 and 18.338 and 28.954 and 31.875 and 17.124 and 5.004
Fig. 1D dose-response, calcium response at Concentration (M) (MRGPRX4 (S83); 6.25e-5 M): 7.246 and 18.605 and 32.559 and 31.367 and 1.645 and 36.351 and 11.712 and 17.508 and 39.720
Fig. 1D dose-response, calcium response at Concentration (M) (MRGPRX4 (S83); 0.00025 M): 30.626 and 14.912 and 5.366 and 49.034 and 15.438 and 25.512 and 22.768 and 21.559 and 24.302
Fig. 1D dose-response, calcium response at Concentration (M) (MRGPRX4 (S83); 0.0005 M): 10.617 and 40.711 and 21.943 and 10.261 and 44.385 and 12.114 and 18.721 and 45.754 and 25.261
Fig. 1D dose-response, calcium response at Concentration (M) (MRGPRX4 (S83); 0.001 M): 34.500 and 40.615 and 40.058 and 10.462 and 33.199 and 24.127 and 20.241 and 39.351 and 8.604
PRESTO-Tango response (fig. S1), single replicate (MRGPRX4 WT (S83) [2]; concentration 9.77e-7 M): 0.1179 and 0.1434 and 0.1128 and 0.0576 and 0.1584 and 0.1581 and 0.09558 and 0.2113 and 0.06727
PRESTO-Tango response (fig. S1), single replicate (MRGPRX4 WT (S83) [2]; concentration 1.95e-6 M): 0.1108 and 0.0929 and 0.1168 and 0.004899 and 0.1204 and 0.1953 and 0.1172 and 0.1059 and 0.09744
PRESTO-Tango response (fig. S1), single replicate (MRGPRX4 WT (S83) [2]; concentration 3.91e-6 M): 0.09107 and 0.1491 and 0.1505 and 0.154 and 0.1534 and 0.08321 and 0.05164 and 0.03127 and 0.3077
PRESTO-Tango response (fig. S1), single replicate (MRGPRX4 WT (S83) [2]; concentration 7.81e-6 M): 0.1035 and 0.1156 and 0.1105 and 0.05878 and 0.1844 and 0.08643 and 0.09982 and 0.0447 and 0.1851
PRESTO-Tango response (fig. S1), single replicate (MRGPRX4 WT (S83) [2]; concentration 1.56e-5 M): 0.1135 and 0.116 and 0.1027 and 0.1824 and 0.02561 and 0.1241 and 0.06605 and 0.09721 and 0.1689
PRESTO-Tango response (fig. S1), single replicate (MRGPRX4 WT (S83) [2]; concentration 3.13e-5 M): 0.1268 and 0.1068 and 0.1143 and 0.2727 and 0.04775 and 0.02749 and 0.1181 and 0.1469 and 0.08291
PRESTO-Tango response (fig. S1), single replicate (MRGPRX4 WT (S83) [2]; concentration 6.25e-5 M): 0.1552 and 0.07997 and 0.0929 and 0.03397 and 0.1353 and 0.1588 and 0.2302 and 0.01074 and 0.08707
PRESTO-Tango response (fig. S1), single replicate (MRGPRX4 WT (S83) [2]; concentration 0.00025 M): 0.109 and 0.07615 and 0.1012 and 0.1462 and 0.1013 and 0.03885 and 0.188 and 0.002674 and 0.09569
PRESTO-Tango response (fig. S1), single replicate (MRGPRX4 WT (S83) [2]; concentration 0.0005 M): 0.06978 and 0.08316 and 0.1048 and 0.1033 and 0.11 and 0.04438 and 0.05461 and 0.1469 and 0.05616
PRESTO-Tango response (fig. S1), single replicate (MRGPRX4 WT (S83) [2]; concentration 0.001 M): 0.07852 and 0.088 and 0.0856 and 0.07264 and 0.06166 and 0.1178 and 0.08358 and 0.132 and 0.03659
PRESTO-Tango response (fig. S1), single replicate (HTLA cells; concentration 9.77e-7 M): 0.002641 and 0.003228 and 0.001921 and 0.003818 and 0.005628 and 0.002399 and 0.002922 and 0.00482 and 0.001506
PRESTO-Tango response (fig. S1), single replicate (HTLA cells; concentration 1.95e-6 M): 0.01304 and 0.00742 and 0.001861 and 0.009318 and 0.007315 and 0.005392 and 0.006104 and 0.000476 and 0.005086
PRESTO-Tango response (fig. S1), single replicate (HTLA cells; concentration 3.91e-6 M): 0.0059 and 0.008908 and 0.007295 and 0.003528 and 0.003903 and 0.003563 and 0.006271 and 0.01085 and 0.002976
PRESTO-Tango response (fig. S1), single replicate (HTLA cells; concentration 7.81e-6 M): 0.01035 and 0.005294 and 0.00767 and 0.001374 and 0.003682 and 0.00304 and 0.005677 and 0.00324 and 0.000748
PRESTO-Tango response (fig. S1), single replicate (HTLA cells; concentration 1.56e-5 M): 0.005663 and 0.003492 and 0.001779 and 0.006047 and 0.000809 and 0.001829 and 0.006081 and 0.002266 and 0.003388
PRESTO-Tango response (fig. S1), single replicate (HTLA cells; concentration 3.13e-5 M): 0.005015 and 0.001994 and 0.006447 and 0.00774 and 0.01014 and 0.004442 and 0.006627 and 0.005281 and 0.005885
PRESTO-Tango response (fig. S1), single replicate (HTLA cells; concentration 6.25e-5 M): 0.00323 and 0.00222 and 0.005079 and 0.001882 and 0.000357 and 0.003112 and 0.002446 and 0.001662 and 0.004291
PRESTO-Tango response (fig. S1), single replicate (HTLA cells; concentration 0.00025 M): 0.00362 and 0.004413 and 0.002642 and 0.006045 and 0.000923 and 0.008313 and 0.004252 and 0.005811 and 0.003669
PRESTO-Tango response (fig. S1), single replicate (HTLA cells; concentration 0.0005 M): 0.004877 and 0.00565 and 0.005098 and 0.004157 and 0.003595 and 0.001306 and 0.008836 and 0.005548 and 0.00448
PRESTO-Tango response (fig. S1), single replicate (HTLA cells; concentration 0.001 M): 0.000524 and 0.002159 and 0.001733 and 0.007522 and 0.000243 and 0.003444 and 0.004679 and 0.004321 and 0.006568
